Measured values published in patent US20240270751A1, “Pyrazolopyridinone Compounds” (BeiGene Ltd., priority 2021, published 2024).

Legend:
[1] = target: DGKζ (Homo sapiens (Human), UniProt Q13574); test: Biochemical DGK IC50 assay, DGKζ ADP-Glo assay; conditions: 0.5 nM enzyme, 140 μM ATP, 80 μM DAG; read-out: DGKζ ADP-Glo assay IC50
Procedure, shortened: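 Full-length human DGKζ, His-TEV tagged and purified from baculovirus-infected Sf9 cells, assayed by ADP-Glo with DAG/PS lipid micelle substrate prepared in 25 mM HEPES pH 7.0 with octyl glucoside. Final compound concentrations spanned 1.55–10000 nM or 23.3–150000 nM.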

[2] = target: DGKα (Homo sapiens (Human), UniProt P23743); test: Biochemical DGK IC50 assay, DGKα ADP-Glo assay; conditions: 7.5 nM enzyme, 140 μM ATP, 80 μM DAG
Procedure, shortened: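 ADP-Glo read-out with full-length DGKα on DAG/PS lipid micelle substrate in 25 mM HEPES pH 7.0, 0.5 mM EDTA, 160 mM octyl β-D-glucopyranoside. Compound final concentrations spanned 1.55˜10000 nM or 23.3˜150000 nM.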

DGKα, sequence (P23743 whole entry): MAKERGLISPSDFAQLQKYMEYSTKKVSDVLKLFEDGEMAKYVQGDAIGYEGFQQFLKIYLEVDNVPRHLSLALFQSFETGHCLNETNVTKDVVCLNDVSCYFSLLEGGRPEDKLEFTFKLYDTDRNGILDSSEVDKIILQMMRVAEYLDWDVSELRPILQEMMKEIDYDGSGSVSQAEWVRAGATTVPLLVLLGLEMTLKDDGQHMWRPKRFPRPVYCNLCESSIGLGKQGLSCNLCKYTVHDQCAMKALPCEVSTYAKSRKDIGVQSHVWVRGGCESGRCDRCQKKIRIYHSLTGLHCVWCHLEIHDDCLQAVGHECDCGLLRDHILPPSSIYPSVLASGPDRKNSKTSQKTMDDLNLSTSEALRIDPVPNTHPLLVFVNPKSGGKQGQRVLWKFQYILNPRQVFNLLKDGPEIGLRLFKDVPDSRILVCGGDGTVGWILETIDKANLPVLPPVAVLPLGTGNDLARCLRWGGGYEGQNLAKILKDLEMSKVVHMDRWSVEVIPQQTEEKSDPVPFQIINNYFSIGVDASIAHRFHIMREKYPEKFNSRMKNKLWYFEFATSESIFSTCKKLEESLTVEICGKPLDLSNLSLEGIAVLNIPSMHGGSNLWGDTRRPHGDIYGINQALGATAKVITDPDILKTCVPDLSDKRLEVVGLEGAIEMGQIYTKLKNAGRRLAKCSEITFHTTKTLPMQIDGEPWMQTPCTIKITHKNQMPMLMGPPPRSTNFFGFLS
DGKζ, sequence (Q13574 other isoform, or with tags, fused parts or gaps): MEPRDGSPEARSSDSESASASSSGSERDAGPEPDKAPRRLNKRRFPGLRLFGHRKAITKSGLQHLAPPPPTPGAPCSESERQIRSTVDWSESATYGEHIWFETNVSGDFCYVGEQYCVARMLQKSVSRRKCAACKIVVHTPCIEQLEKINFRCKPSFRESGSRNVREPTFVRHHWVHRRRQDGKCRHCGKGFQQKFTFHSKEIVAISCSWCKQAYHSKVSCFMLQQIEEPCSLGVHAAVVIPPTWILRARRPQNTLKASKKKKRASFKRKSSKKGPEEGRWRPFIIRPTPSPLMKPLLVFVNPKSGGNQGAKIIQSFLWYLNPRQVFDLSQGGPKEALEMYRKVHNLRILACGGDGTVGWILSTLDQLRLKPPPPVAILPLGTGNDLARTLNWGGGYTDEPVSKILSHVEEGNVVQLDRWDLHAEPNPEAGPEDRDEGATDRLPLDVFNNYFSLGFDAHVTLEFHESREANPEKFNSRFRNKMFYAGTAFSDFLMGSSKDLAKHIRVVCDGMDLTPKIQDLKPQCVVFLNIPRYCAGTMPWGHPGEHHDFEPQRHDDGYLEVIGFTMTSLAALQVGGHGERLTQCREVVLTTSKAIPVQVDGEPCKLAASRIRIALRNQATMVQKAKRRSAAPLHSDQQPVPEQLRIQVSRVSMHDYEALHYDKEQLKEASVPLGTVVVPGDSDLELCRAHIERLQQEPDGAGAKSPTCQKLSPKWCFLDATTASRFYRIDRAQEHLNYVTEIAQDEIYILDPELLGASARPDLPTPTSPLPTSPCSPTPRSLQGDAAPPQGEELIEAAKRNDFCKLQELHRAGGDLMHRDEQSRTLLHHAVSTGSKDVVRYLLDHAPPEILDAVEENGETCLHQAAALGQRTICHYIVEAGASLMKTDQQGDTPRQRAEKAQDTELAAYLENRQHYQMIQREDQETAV

| IC50 [1] [nM] | IC50 [2] [nM] | SMILES |
| --- | --- | --- |
| 499 | 79 | CC[C@H]1CN(C(C)c2ccc(C(=O)N3CCC(F)(F)CC3)cc2)[C@H](CC)CN1c1cc(=O)n(C)c2cn(CC#N)nc12 (some centres unmarked) [Compound A382] |
| 2270 | 2590 | CC[C@@H]1CN(c2cc(=O)n(C)c3cn(CC#N)nc23)[C@@H](CC)CN1C(=O)c1cccc(C(F)(F)F)c1 [Compound A206, 2-(7-((2S,5R)-2,5-diethyl-4-(3-(trifluoromethyl)benzoyl)piperazin-1-yl)-4-methyl-5-oxo-4,5-dihydro-2H-pyrazolo[4,3-b]pyridin-2-yl)acetonitrile] |
| 4250 | 1620 | CC(c1ccc(CN2CCOC(C)(C)C2)cc1)N1C[C@H](C)N(c2cc(=O)n(C)c3cn(CC#N)nc23)C[C@H]1C (stereo partly drawn) [Compound A341, 2-(7-((2S,5R)-4-(1-(4-((2,2-dimethylmorpholino)methyl)phenyl)ethyl)-2,5-dimethylpiperazin-1-yl)-4-methyl-5-oxo-4,5-dihydro-2H-pyrazolo[4,3-b]pyridin-2-yl)acetonitrile] |
| > 10000 | 717 | CC[C@@H]1CN(c2cc(=O)n(C)c3cn(CC#N)nc23)[C@@H](CC)CN1C(=O)c1cc2cnccc2cn1 [Compound A371] |
| 3500 | 21000 | COCCn1cc2c(n1)c(N1C[C@@H](C)N(C(C)c3ccc4nccnc4c3)C[C@@H]1C)cc(=O)n2C (some centres unmarked) [Compound A5] |
| 34000 | 5900 | CC(c1ccc2nccnc2c1)N1C[C@H](C)N(c2cc(=O)n(C)c3cn(C(=O)C4CC4)nc23)C[C@H]1C (some centres unmarked) [Compound A15] |
| 378 | > 10000 | CC[C@H]1CN(C(C)c2cccnc2C(F)(F)F)[C@H](CC)CN1c1cc(=O)n(C)c2cn(CC#N)nc12 (some centres unmarked) [Compound A217] |
| 68 | 35400 | CC=CCn1cc2c(n1)c(N1C[C@@H](C)N([C@@H](C)c3ccc4ncc(C)nc4c3)C[C@@H]1C)cc(=O)n2C [Compound A302, 2-(but-2-en-1-yl)-7-((2S,5R)-2,5-dimethyl-4-((S)-1-(3-methylquinoxalin-6-yl)ethyl)piperazin-1-yl)-4-methyl-2,4-dihydro-5H-pyrazolo[4,3-b]pyridin-5-one] |
| > 10000 | 303 | CC[C@H]1CN(C(C)c2ccc(C(F)(F)F)cc2F)[C@H](CC)CN1c1cc(=O)n(C)c2c[nH]nc12 (single isomer, unassigned) [Compound A231b] |
| 43 | 83 | CC[C@H]1CN(C(C)c2ccc3cccnc3n2)[C@H](CC)CN1c1cc(=O)n(C)c2cn(CC#N)nc12 (stereo partly drawn) [Compound A63, 2-(7-((2S,5R)-4-(1-(1,8-naphthyridin-2-yl)ethyl)-2,5-diethylpiperazin-1-yl)-4-methyl-5-oxo-4,5-dihydro-2H-pyrazolo[4,3-b]pyridin-2-yl)acetonitrile] |
| 21 | 2570 | C[C@@H]1CN(c2cc(=O)n(C)c3cn(CC#N)nc23)[C@@H](C)CN1[C@@H](C)c1ccc2c(c1)OC(C)(C)CO2 [Compound A46b] |
| 13000 | 1100 | CC#CCn1cc2c(n1)c(N1C[C@@H](C)N([C@H](C)c3ccc4nccnc4c3)C[C@@H]1C)cc(=O)n2C [Compound A22a, 2-(but-2-yn-1-yl)-7-((2S,5R)-2,5-dimethyl-4-((R)-1-(quinoxalin-6-yl)ethyl)piperazin-1-yl)-4-methyl-2,4-dihydro-5H-pyrazolo[4,3-b]pyridin-5-one] |
| 369 | 87000 | CC(c1ccc2ncc(CO)nc2c1)N1C[C@H](C)N(c2cc(=O)n(C)c3cn(CC#N)nc23)C[C@H]1C (single isomer, unassigned) [Compound A309b] |
| 6650 | 4900 | CC[C@H]1CN(C(C)c2cc3cnccc3cn2)[C@H](CC)CN1c1cc(=O)n(C)c2cn(CC#N)nc12 (single isomer, unassigned) [Compound A368a] |
| 369 | 11200 | CC[C@H]1CN(C(C)c2cc(C(F)(F)F)nn2CC)[C@H](CC)CN1c1cc(=O)n(C)c2cn(CC#N)nc12 (some centres unmarked) [Compound A210] |
| 380 | > 10000 | CC[C@@H]1CN(c2cc(=O)n(C)c3cn(CC#N)nc23)[C@@H]([C@@H](C)O)CN1C(C)c1ccc2nccnc2c1 (stereo partly drawn) [Compound A259, 2-(7-((2R,5R)-5-ethyl-2-((R)-1-hydroxyethyl)-4-(1-(quinoxalin-6-yl)ethyl)piperazin-1-yl)-4-methyl-5-oxo-4,5-dihydro-2H-pyrazolo[4,3-b]pyridin-2-yl)acetonitrile] |
| 2040 | > 10000 | CC[C@H]1CN(C(C)c2cccc(CN(C)C)c2)[C@H](CC)CN1c1cc(=O)n(C)c2cn(CC#N)nc12 (some centres unmarked) [Compound A151] |
| 290 | 459 | CC[C@H]1CN(C(C)c2ccc(CN3CCC(F)(F)CC3)nc2)[C@H](CC)CN1c1cc(=O)n(C)c2cn(CC#N)nc12 (single isomer, unassigned) [Compound A381a] |
| 6420 | 10900 | CC[C@H]1CN(C(C)c2cnc(C)c(C)n2)[C@H](CC)CN1c1cc(=O)n(C)c2cn(CC#N)nc12 (single isomer, unassigned) [Compound A355a] |
| 5270 | > 10000 | C[C@H](c1ccc2nccnc2c1)N1CC2CCC1CN2c1cc(=O)n(C)c2cn(CC#N)nc12 (some centres unmarked) [Compound A125b] |
| 5350 | 182 | CC[C@H]1CN(C(C)c2ccc3nc(O)cnc3c2)[C@H](CC)CN1c1cc(=O)n(C)c2cn(CC#N)nc12 (single isomer, unassigned) [Compound A282a] |
| 707 | > 10000 | CC(c1ccc2nccnc2c1)N1C[C@H](CO)N(c2cc(=O)n(C)c3cn(CC#N)nc23)C[C@H]1C (stereo partly drawn) [Compound A101, 2-(7-((2R,5R)-2-(hydroxymethyl)-5-methyl-4-(1-(quinoxalin-6-yl)ethyl)piperazin-1-yl)-4-methyl-5-oxo-4,5-dihydro-2H-pyrazolo[4,3-b]pyridin-2-yl)acetonitrile] |
| 1030 | 2990 | CC[C@H]1CN(C(C)c2ccc(C(F)(F)F)cc2OC)[C@H](CC)CN1c1cc(=O)n(C)c2cn(CC#N)nc12 (some centres unmarked) [Compound A157] |
| 272 | 222 | CC#CCn1cc2c(n1)c(N1C[C@@H](CC)N(C(C)c3ccc4cccnc4c3)C[C@@H]1C)cc(=O)n2C (some centres unmarked) [Compound A395] |
| 373 | 5830 | CC[C@H]1CN(C(C)c2cnc(OC(C)C)cc2F)[C@H](CC)CN1c1cc(=O)n(C)c2cn(CC#N)nc12 (some centres unmarked) [Compound A358] |
| > 10000 | > 10000 | CC[C@@H]1CN(c2cc(=O)n(C)c3cn(CC#N)nc23)CCN1C(C)c1ccc2nccnc2c1 (single isomer, unassigned) [Compound A161a] |
| 310 | 5300 | C#CCn1cc2c(n1)c(N1C[C@@H](C)N(C(C)c3ccc4nccnc4c3)C[C@@H]1C)cc(=O)n2C (some centres unmarked) [Compound A21] |
| 263 | 3400 | CC[C@H]1CN(C(C)c2ccc(F)c(F)c2C(F)(F)F)[C@H](CC)CN1c1cc(=O)n(C)c2cn(CC#N)nc12 (some centres unmarked) [Compound A288] |
